According to PubChem BioAssay (NCI):
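Five compound concentrations were applied to cells in 96-well plates for 48 hours; endpoints were derived by simple linear interpolation of the resulting dose-response curve. TGI: total growth inhibition.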

What was measured:
Experiment in all cases: inhibition of tumour cell growth, NCI panel, 48 h
[1] = test system: HCT-116 colon
[2] = test system: SR leukemia
[3] = test system: DMS 114 small cell lung
[4] = test system: UO-31 renal
[5] = test system: HCC-2998 colon
[6] = test system: OVCAR-4 ovarian
[7] = test system: KM20L2 colon
[8] = test system: SW-620 colon
[9] = test system: LOX IMVI melanoma
[10] = test system: NCI-H23 lung
[11] = test system: OVCAR-5 ovarian
[12] = test system: SNB-19 CNS
[13] = test system: K-562 leukemia
[14] = test system: SF-268 CNS
[15] = test system: SNB-75 CNS
[16] = test system: MALME-3M melanoma
[17] = test system: M14 melanoma
[18] = test system: SK-MEL-2 melanoma
[19] = test system: SK-MEL-28 melanoma
[20] = test system: SK-OV-3 ovarian
[21] = test system: IGROV1 ovarian
[22] = test system: SN12C renal
[23] = test system: 786-0 renal
[24] = test system: KM12 colon
[25] = test system: U251 CNS
[26] = test system: SK-MEL-5 melanoma
[27] = test system: OVCAR-3 ovarian
[28] = test system: ACHN renal
[29] = test system: SNB-78 CNS
[30] = test system: TK-10 renal
[31] = test system: UACC-62 melanoma
[32] = test system: RXF 393 renal
[33] = test system: HCT-15 colon
[34] = test system: CAKI-1 renal
[35] = test system: HOP-92 NSCLC
[36] = test system: MOLT-4 leukemia
[37] = test system: A549 NSCLC
[38] = test system: NCI-H226 lung
[39] = test system: HL-60(TB) leukemia
[40] = test system: SF-295 CNS
[41] = test system: HT29 colon
[42] = test system: DLD-1 colon
[43] = test system: OVCAR-8 ovarian
[44] = test system: SF-539 CNS
[45] = test system: HOP-18 NSCLC
[46] = test system: NCI-H460 lung
[47] = test system: HOP-62 NSCLC
[48] = test system: M19-MEL melanoma
[49] = test system: EKVX NSCLC
[50] = test system: UACC-257 melanoma
[51] = test system: CCRF-CEM leukemia
[52] = test system: LXFL 529 NSCLC
[53] = test system: RPMI-8226 leukemia
[54] = test system: NCI-H522 lung

COC1CCCCN1C(=O)c1ccccc1 (stereo unspecified)
TGI [1]: > 25.3 µM | TGI [2]: > 25.3 µM | TGI [3]: > 25.3 µM | TGI [4]: > 25.3 µM | TGI [5]: > 25.3 µM | TGI [6]: > 25.3 µM | TGI [7]: > 25.3 µM | TGI [8]: > 25.3 µM | TGI [9]: > 25.3 µM | TGI [10]: > 25.3 µM | TGI [11]: > 25.3 µM | TGI [12]: > 25.3 µM | TGI [13]: > 25.3 µM | TGI [14]: > 25.3 µM | TGI [15]: > 25.3 µM | TGI [16]: > 25.3 µM | TGI [17]: > 25.3 µM | TGI [18]: > 25.3 µM | TGI [19]: > 25.3 µM | TGI [20]: > 25.3 µM | TGI [21]: > 25.3 µM | TGI [22]: > 25.3 µM | TGI [23]: > 25.3 µM | TGI [24]: > 25.3 µM | TGI [25]: > 25.3 µM | TGI [26]: > 25.3 µM | TGI [27]: > 25.3 µM | TGI [28]: > 25.3 µM | TGI [29]: > 25.3 µM | TGI [30]: > 25.3 µM | TGI [31]: > 25.3 µM | TGI [32]: > 25.3 µM | TGI [33]: > 25.3 µM | TGI [34]: > 25.3 µM | TGI [35]: > 25.3 µM | TGI [36]: > 25.3 µM | TGI [37]: > 25.3 µM | TGI [38]: > 25.3 µM | TGI [39]: > 25.3 µM

COc1ccc(/C=C(\C(C)=O)C(=O)Nc2ccccc2)cc1
TGI [40]: > 100 µM | TGI [1]: > 100 µM | TGI [41]: > 100 µM | TGI [2]: > 100 µM | TGI [3]: > 100 µM | TGI [42]: > 100 µM | TGI [4]: > 100 µM | TGI [5]: > 100 µM | TGI [6]: > 100 µM | TGI [8]: > 100 µM | TGI [43]: > 100 µM | TGI [9]: > 100 µM | TGI [44]: > 100 µM | TGI [45]: > 100 µM | TGI [10]: > 100 µM | TGI [11]: > 100 µM | TGI [46]: > 100 µM | TGI [12]: > 100 µM | TGI [13]: > 100 µM | TGI [14]: > 100 µM | TGI [16]: > 100 µM | TGI [17]: > 100 µM | TGI [47]: > 100 µM | TGI [18]: > 100 µM | TGI [48]: > 100 µM | TGI [49]: > 100 µM | TGI [50]: > 100 µM | TGI [19]: > 100 µM | TGI [20]: > 100 µM | TGI [21]: > 100 µM | TGI [51]: > 100 µM | TGI [22]: > 100 µM | TGI [23]: > 100 µM | TGI [24]: > 100 µM | TGI [25]: > 100 µM | TGI [26]: > 100 µM | TGI [27]: > 100 µM | TGI [52]: > 100 µM | TGI [53]: > 100 µM | TGI [28]: > 100 µM | TGI [29]: > 100 µM | TGI [30]: > 100 µM | TGI [31]: > 100 µM | TGI [32]: > 100 µM | TGI [33]: > 100 µM | TGI [34]: > 100 µM | TGI [35]: > 100 µM | TGI [36]: > 100 µM | TGI [37]: > 100 µM | TGI [38]: > 100 µM | TGI [39]: > 100 µM | TGI [54]: > 100 µM
